In ChEMBL document CHEMBL6096702, “Discovery of a Novel p38α-MK2 Complex Inhibitor as a Potential Choice for Autoimmune Diseases” (J Med Chem, 2025):
Converted amounts (≈) assume the structure as drawn. The source made the active and inactive calls. The rule behind the calls is not given here.

What was measured:
[1] = Inhibition of N-terminal GST-tagged wildtype human P38alpha (4 to 152 residues) extracted from Escherichia coli/GST-tagged PRAK (unknown origin) assessed as reduction in HSP27 phosphorylation incubated for 2 hrs in presence of ATP and HSP27-FITC peptide by fluorescence polarization based IMAP assay
[2] = Selectivity ratio of IC50 for inhibition of N-terminal GST-tagged wildtype human P38alpha (4 to 152 residues) extracted from Escherichia coli/GST-tagged PRAK (unknown origin) to IC50 for inhibition of N-terminal GST-tagged wildtype human P38alpha (4 to 152 residues) extracted from Escherichia coli/GST-tagged MK2 (unknown origin)
[3] = AUClast in male Sprague-Dawley rat at 1 mg/kg, iv measured after 24 hrs by LC-MS/MS analysis; type: ADME, organism-based; details: in vivo
[4] = Clearance in male Sprague-Dawley rat at 1 mg/kg, iv measured after 24 hrs by LC-MS/MS analysis; type: ADME, organism-based; details: in vivo
[5] = Volume of distribution at steady state in male Sprague-Dawley rat at 1 mg/kg, iv measured after 24 hrs by LC-MS/MS analysis; type: ADME, organism-based; details: in vivo, read-out: Vdss
[6] = Half-life in male Sprague-Dawley rat at 1 mg/kg, iv measured after 24 hrs by LC-MS/MS analysis; type: ADME, organism-based; details: in vivo
[7] = MRT in male Sprague-Dawley rat at 1 mg/kg, iv measured after 24 hrs by LC-MS/MS analysis; type: ADME, organism-based; details: in vivo
[8] = Cmax in male Sprague-Dawley rat at 2 mg/kg, po measured after 24 hrs by LC-MS/MS analysis; type: ADME, organism-based; details: in vivo
[9] = AUClast in male Sprague-Dawley rat at 2 mg/kg, po measured after 24 hrs by LC-MS/MS analysis; type: ADME, organism-based; details: in vivo
[10] = Oral bioavailability in male Sprague-Dawley rat at 2 mg/kg measured after 24 hrs by LC-MS/MS analysis; type: ADME, organism-based; details: in vivo
[11] = Inhibition of LPS-induced TNF-alpha production in human PBMC cells preincubated with compound for 1 hrs followed by LPS addition and measured after 4 hrs; type: functional, cell-based
[12] = Inhibition of LPS-induced IL-1beta production in human PBMC cells preincubated with compound for 1 hrs followed by LPS addition and measured after 4 hrs; type: functional, cell-based
[13] = Inhibition of N-terminal GST-tagged wildtype human P38alpha (4 to 152 residues) extracted from Escherichia coli/GST-tagged MK2 (unknown origin) assessed as reduction in HSP27 phosphorylation incubated for 2 hrs in presence of ATP and HSP27-FITC peptide by fluorescence polarization based IMAP assay
[14] = AUClast in male Beagle dog at 1 mg/kg, iv measured after 24 hrs by LC-MS/MS analysis; type: ADME, organism-based, Canis lupus familiaris; details: in vivo
[15] = Clearance in male Beagle dog at 1 mg/kg, iv measured after 24 hrs by LC-MS/MS analysis; type: ADME, organism-based, Canis lupus familiaris; details: in vivo
[16] = Volume of distribution at steady state in male Beagle dog at 1 mg/kg, iv measured after 24 hrs by LC-MS/MS analysis; type: ADME, organism-based, Canis lupus familiaris; details: in vivo, read-out: Vdss
[17] = Half-life in male Beagle dog at 1 mg/kg, iv measured after 24 hrs by LC-MS/MS analysis; type: ADME, organism-based, Canis lupus familiaris; details: in vivo
[18] = MRT in male Beagle dog at 1 mg/kg, iv measured after 24 hrs by LC-MS/MS analysis; type: ADME, organism-based, Canis lupus familiaris; details: in vivo
[19] = Cmax in male Beagle dog at 2 mg/kg, po measured after 24 hrs by LC-MS/MS analysis; type: ADME, organism-based, Canis lupus familiaris; details: in vivo
[20] = AUClast in male Beagle dog at 2 mg/kg, po measured after 24 hrs by LC-MS/MS analysis; type: ADME, organism-based, Canis lupus familiaris; details: in vivo
[21] = Oral bioavailability in male Beagle dog at 2 mg/kg measured after 24 hrs by LC-MS/MS analysis; type: ADME, organism-based, Canis lupus familiaris; details: in vivo
PBMC [22] = test: Inhibition of LPS-induced TNF-alpha production in human PBMC cells at 0.01 to 10000 nM preincubated with compound for 1 hrs followed by LPS addition and measured after 4 hrs; type: functional, cell-based; details: dose 0.01-10000 nM, time 5.0 hrs
PBMC [23] = test: Inhibition of LPS-induced IL-6 production in human PBMC cells at 0.01 to 10000 nM preincubated with compound for 1 hrs followed by LPS addition and measured after 4 hrs; type: functional, cell-based; details: dose 0.01-10000 nM, time 5.0 hrs
PBMC [24] = test: Inhibition of LPS-induced IL-8 production in human PBMC cells at 0.01 to 10000 nM preincubated with compound for 1 hrs followed by LPS addition and measured after 4 hrs; type: functional, cell-based; details: dose 0.01-10000 nM, time 5.0 hrs
[25] = Solubility of compound in PBS at pH 7.4 measured after 4 to 24 hrs by LC-MS analysis; type: physicochemical; details: time 4-24 hrs
[26] = Half-life in female Lewis rat at 1 mg/kg, po measured after 24 hrs by LC-MS/MS analysis; type: ADME, organism-based; details: in vivo
[27] = Cmax in female Lewis rat at 1 mg/kg, po measured after 24 hrs by LC-MS/MS analysis; type: ADME, organism-based; details: in vivo
[28] = AUC (0 to 24 hrs) in female Lewis rat at 1 mg/kg, po measured after 24 hrs by LC-MS/MS analysis; type: ADME, organism-based; details: in vivo
[29] = Half-life in female Lewis rat at 3 mg/kg, po measured after 24 hrs by LC-MS/MS analysis; type: ADME, organism-based; details: in vivo
[30] = Cmax in female Lewis rat at 3 mg/kg, po measured after 24 hrs by LC-MS/MS analysis; type: ADME, organism-based; details: in vivo
[31] = AUC (0 to 24 hrs) in female Lewis rat at 3 mg/kg, po measured after 24 hrs by LC-MS/MS analysis; type: ADME, organism-based; details: in vivo
Rattus norvegicus = test: Antiarthritic activity in Mycobacterium tuberculosis H37R-induced female Lewis rat model of arthritis assessed as reduction in paw inflammation at 3 mg/kg, po administered twice daily for 15 days starting from day 13 after adjuvant administration by micro-CT analysis; type: functional, organism-based; details: time 15.0 day

Compound: Cc1cnc(-c2cccc(C(C)(C)O)c2F)c(F)c1-n1c(C)cc(OCc2ncc(F)cc2F)c(Cl)c1=O
- IC50 [1]: 1 nM
- Ratio IC50 [2]: 125
- AUC(0-t) at 24 h [3]: 1.08 µg·h/mL
- clearance [4]: 0.978 L/h/kg
- Vd [5]: 1.1 L/kg
- half-life [6]: 0.9 h
- MRT [7]: 1.2 h
- Cmax [8]: 0.283 µg/mL
- AUC(0-t) at 24 h [9]: 0.861 µg·h/mL
- bioavailability [10]: 40%
- IC50 [11]: < 0.1 nM
- IC50 [12]: 0.02 nM

Compound: Cc1cnc(-c2ccnc(C(C)(C)O)n2)cc1-n1c(C)cc(OCc2ncc(F)cc2F)c(Cl)c1=O [ZUNSEMETINIB]
- IC50 [13]: 6.6 nM
- IC50 [1]: 6410 nM
- Ratio IC50 [2]: 971
- AUC(0-t) at 24 h [3]: 1.28 µg·h/mL
- clearance [4]: 0.786 L/h/kg
- Vd [5]: 0.8 L/kg
- half-life [6]: 1.1 h
- MRT [7]: 1.1 h
- Cmax [8]: 0.415 µg/mL
- AUC(0-t) at 24 h [9]: 1.83 µg·h/mL
- bioavailability [10]: 71%
- AUC(0-t) at 24 h [14]: 2.23 µg·h/mL
- clearance [15]: 0.45 L/h/kg
- Vd [16]: 1.5 L/kg
- half-life [17]: 3.4 h
- MRT [18]: 3.4 h
- Cmax [19]: 0.587 µg/mL
- AUC(0-t) at 24 h [20]: 3.23 µg·h/mL
- bioavailability [21]: 73%
- inhibition (PBMC [22]): Active
- inhibition (PBMC [23]): Active
- inhibition (PBMC [24]): Active
- solubility [25]: 5.6 µg/mL (≈ 10.9 µM)
- half-life [26]: 1.9 h
- Cmax [27]: 0.217 µg/mL
- AUC(0-t) at 24 h [28]: 0.682 µg·h/mL
- half-life [29]: 1.6 h
- Cmax [30]: 0.781 µg/mL
- AUC(0-t) at 24 h [31]: 2.52 µg·h/mL
- Activity (Rattus norvegicus): inactive
